The results in this text go back to patent publication US9085576B2 (AMGEN INC., priority 2013, dated 2015).

Experiment [1] addresses Beta Secretase enzyme (BACE) (Homo sapiens (Human), UniProt P56817). The experiment in a line: In vitro enzymatic BACE FRET assay. Format: biochemical. The note with it: read-out: BACE1 Enzyme assay IC50.
The target of experiment [2] is Cathepsin D (Cat D) (Homo sapiens (Human), UniProt P07339). The experiment in a line: In vitro enzymatic Cathepsin D (Cat D) FRET assay. Format: biochemical. The note with it: read-out: CatD IC50.
Experiment [3] has as its target BACE (Homo sapiens (Human), UniProt P56817). The experiment is described as follows: In vitro BACE cell-based assay (Aβ40 in conditioned medium, sandwich ELISA). (In general: ELISA stands for enzyme-linked immunosorbent assay.)

The structures appear in SMILES notation.

Cathepsin D (Cat D), sequence (P07339 65-412, species assumed): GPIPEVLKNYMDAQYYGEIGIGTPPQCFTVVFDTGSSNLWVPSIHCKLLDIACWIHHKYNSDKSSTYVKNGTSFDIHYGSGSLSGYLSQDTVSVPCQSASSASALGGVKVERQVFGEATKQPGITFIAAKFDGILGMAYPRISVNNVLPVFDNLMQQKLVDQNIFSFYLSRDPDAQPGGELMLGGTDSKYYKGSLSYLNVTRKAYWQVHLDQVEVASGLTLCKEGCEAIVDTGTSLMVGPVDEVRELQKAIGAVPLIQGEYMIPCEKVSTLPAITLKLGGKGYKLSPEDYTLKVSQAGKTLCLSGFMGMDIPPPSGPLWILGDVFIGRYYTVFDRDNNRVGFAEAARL
Beta Secretase enzyme (BACE), sequence (P56817 46-501): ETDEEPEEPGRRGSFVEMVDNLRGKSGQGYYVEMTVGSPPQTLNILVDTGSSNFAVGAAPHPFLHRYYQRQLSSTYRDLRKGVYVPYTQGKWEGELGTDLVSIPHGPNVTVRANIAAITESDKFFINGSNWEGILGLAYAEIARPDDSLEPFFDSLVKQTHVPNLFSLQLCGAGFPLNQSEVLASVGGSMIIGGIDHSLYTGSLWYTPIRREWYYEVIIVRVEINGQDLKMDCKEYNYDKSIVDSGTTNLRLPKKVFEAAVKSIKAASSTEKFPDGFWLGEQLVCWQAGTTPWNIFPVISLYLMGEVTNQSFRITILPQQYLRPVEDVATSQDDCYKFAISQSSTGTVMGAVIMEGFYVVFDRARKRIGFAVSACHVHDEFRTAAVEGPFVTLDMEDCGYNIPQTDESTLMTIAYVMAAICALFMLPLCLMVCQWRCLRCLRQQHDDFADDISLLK
BACE, sequence (P56817 46-501, species assumed): as the sequence (P56817 46-501) above

Usually IC50 stands for the concentration that gives 50% inhibition. For the compound `NC1=N[C@](CF)(c2cc(NC(=O)c3nn(C(F)F)cc3Cl)cc(F)c2F)[C@H]2C[C@H]2O1` [Example 46, N-(3-((1R,5S,6R)-3-amino-5-(fluoromethyl)-2-oxa-4-azabicyclo[4.1.0]hept-3-en-5-yl)-4,5-difluorophenyl)-4-chloro-1-(difluoromethyl)-1H-pyrazole-3-carboxamide], the figures for the half-maximal inhibitory concentration (IC50) in experiment [1], in experiment [2] and in experiment [3] were 0.018 µM, 174 µM and 0.0046 µM, respectively.
Take `Cc1cc(C#N)cnc1C(=O)Nc1cc(F)c(F)c([C@@]2(CF)N=C(N)O[C@@H]3C[C@@H]32)c1` [Example 49]: the half-inhibitory concentration (IC50) worked out at 0.0308 µM in experiment [1], 202 µM in experiment [2] and 0.0082 µM in experiment [3].
The like results for `Cc1cc(C(F)(F)F)cnc1C(=O)Nc1cc(F)c(F)c([C@@]2(CF)N=C(N)O[C@@H]3C[C@@H]32)c1` [Example 51] were, in that order, 0.0627 µM, 113 µM and 0.0143 µM.
As for `CC#CCOc1cnc(C(=O)Nc2ccc(F)c([C@@]3(C)N=C(N)O[C@@H]4C[C@@H]43)c2)c(C)c1` [Example 56, N-(3-((1R,5S,6R)-3-amino-5-methyl-2-oxa-4-azabicyclo[4.1.0]hept-3-en-5-yl)-4-fluorophenyl)-5-(but-2-yn-1-yloxy)-3-methylpicolinamide], the IC50 worked out at 0.0129 µM in experiment [1], 303 µM in experiment [2] and 0.003 µM in experiment [3].
As to `CC#CCOc1cnc(C(=O)Nc2ccc(F)c([C@]3(C)N=C(N)O[C@H]4C[C@H]43)c2)c(C)c1` [Example 57, N-(3-((1S,5R,6S)-3-amino-5-methyl-2-oxa-4-azabicyclo[4.1.0]hept-3-en-5-yl)-4-fluorophenyl)-5-(but-2-yn-1-yloxy)-3-methylpicolinamide], the IC50 in experiment [1] stood at 2.25 µM; in experiment [2], 333 µM; in experiment [3] it was 0.455 µM.
For `NC1=N[C@](c2cc(NC(=O)c3ccc(Cl)cn3)ccc2F)(C(F)F)[C@@H]2C[C@@H]2O1` [Example 60, N-(3-((1S,5R,6S)-3-amino-5-(difluoromethyl)-2-oxa-4-azabicyclo[4.1.0]hept-3-en-5-yl)-4-fluorophenyl)-5-chloropicolinamide], in that order: over 40 µM, over 400 µM and over 15.6 µM.
Turning to `COc1cnc(C(=O)Nc2ccc(F)c([C@@]3(C(F)F)N=C(N)O[C@@H]4C[C@@H]43)c2)c(C)n1` [Example 63, N-(3((1R,5S,6R)-3-amino-5-(difluoromethyl)-2-oxa-4-azabicyclo[4.1.0]hept-3-en-5-yl)-4-fluorophenyl)-5-methoxy-3-methylpyrazine-2-carboxamide], the 50% inhibitory concentration (IC50) is 0.0637 µM in experiment [1], 99.8 µM in experiment [2] and 0.0584 µM in experiment [3].
For `COc1cnc(C(=O)Nc2ccc(F)c([C@]3(C(F)F)N=C(N)O[C@H]4C[C@H]43)c2)c(C)n1` [Example 64, N-(3-((1S,5R,6S)-3-amino-5-(difluoromethyl)-2-oxa-4-azabicyclo[4.1.0]hept-3-en-5-yl)-4-fluorophenyl)-5-methoxy-3-methylpyrazine-2-carboxamide], in that order: 6.19 µM, 191 µM and over 15.6 µM.
For `C[C@]1(c2cc(NC(=O)c3ccc(Cl)cn3)ccc2F)N=C(N)O[C@@H]2C[C@@H]21` [Example 68], in that order: 0.065 µM, 476 µM and 0.0063 µM.
Turning to `Cc1c(C(=O)Nc2ccc(F)c([C@@]3(C(F)F)N=C(N)O[C@@H]4C[C@@H]43)c2)nc2ccc(Cl)cn12` [Example 69], the IC50 in experiment [1] was determined as 0.126 µM; in experiment [2], 440 µM; in experiment [3] it was 0.0372 µM.
The like results for `COc1cnc(C(=O)Nc2ccc(F)c([C@@]3(C(F)F)N=C(N)O[C@@H]4C[C@@H]43)c2)cn1` [Example 72, N-(3-((1R,5S,6R)-3-amino-5-(difluoromethyl)-2-oxa-4-azabicyclo[4.1.0]hept-3-en-5-yl)-4-fluorophenyl)-5-methoxypyrazine-2-carboxamide] were, in that order, 0.0763 µM, 1110 µM and 0.0604 µM.
For `COc1ccc(C(=O)Nc2ccc(F)c([C@]3(CF)N=C(N)O[C@H]4C[C@H]43)c2F)nc1` [Example 78, N-(3-((1S,5R,6S)-3-amino-5-(fluoromethyl)-2-oxa-4-azabicyclo[4.1.0]hept-3-en-5-yl)-2,4-difluorophenyl)-5-methoxypicolinamide], in that order: over 40 µM, over 400 µM and over 15.6 µM.
The like results for `COc1ccc(C(=O)Nc2ccc(F)c([C@@]3(CF)N=C(N)O[C@@H]4C[C@@H]43)c2F)nc1` [Example 79, N-(3-((1R,5S,6R)-3-amino-5-(fluoromethyl)-2-oxa-4-azabicyclo[4.1.0]hept-3-en-5-yl)-2,4-difluorophenyl)-5-methoxypicolinamide] were, in that order, 3.04 µM, 942 µM and 0.12 µM.
For the compound `COC[C@]1(c2cc(NC(=O)c3cnc(OC)cn3)ccc2F)N=C(N)O[C@@H]2C[C@@H]21` [Example 80, N-(3-((1R,5S,6R)-3-amino-5-(methoxymethyl)-2-oxa-4-azabicyclo[4.1.0]hept-3-en-5-yl)-4-fluorophenyl)-5-methoxypyrazine-2-carboxamide], the values for the IC50 in experiment [1], in experiment [2] and in experiment [3] were 7.95 µM, over 400 µM and 0.183 µM, respectively.
For `COC[C@@]1(c2cc(NC(=O)c3cnc(OC)cn3)ccc2F)N=C(N)O[C@H]2C[C@H]21` [Example 81, N-(3-((1S,5R,6S)-3-amino-5-(methoxymethyl)-2-oxa-4-azabicyclo[4.1.0]hept-3-en-5-yl)-4-fluorophenyl)-5-methoxypyrazine-2-carboxamide], in that order: over 40 µM, over 400 µM and over 15.6 µM.
For `COC[C@]1(c2cc(NC(=O)c3ccc(Cl)cn3)ccc2F)N=C(N)O[C@@H]2C[C@@H]21` [Example 82, N-(3-((1R,5S,6R)-3-amino-5-(methoxymethyl)-2-oxa-4-azabicyclo[4.1.0]hept-3-en-5-yl)-4-fluorophenyl)-5-chloropicolinamide], in that order: 2.74 µM, over 400 µM and 0.157 µM.
With `COC[C@@]1(c2cc(NC(=O)c3ccc(Cl)cn3)ccc2F)N=C(N)O[C@H]2C[C@H]21` [Example 83, N-(3-((1 S,5R,6S)-3-amino-5-(methoxymethyl)-2-oxa-4-azabicyclo[4.1.0]hept-3-en-5-yl)-4-fluorophenyl)-5-chloropicolinamide], the concentration for half-maximal inhibition (IC50) in experiment [1] is over 40 µM; in experiment [2] it was over 400 µM; in experiment [3] it was over 15.6 µM.
The like results for `COc1cnc(C(=O)Nc2ccc(F)c([C@@]3(C(F)F)N=C(N)O[C@@H]4C[C@@H]43)c2)c(OC)n1` [Example 84, N-(3-((1R,5S,6R)-3-amino-5-(difluoromethyl)-2-oxa-4-azabicyclo[4.1.0]hept-3-en-5-yl)-4-fluorophenyl)-3,5-dimethoxypyrazine-2-carboxamide] were, in that order, 0.494 µM, over 400 µM and 0.361 µM.
For `COc1cnc(C(=O)Nc2cc(Cl)c(F)c([C@@]3(CF)N=C(N)O[C@@H]4C[C@@H]43)c2)cn1` [Example 85, N-(3-((1R,5S,6R)-3-amino-5-(fluoromethyl)-2-oxa-4-azabicyclo[4.1.0]hept-3-en-5-yl)-5-chloro-4-fluorophenyl)-5-methoxypyrazine-2-carboxamide], in that order: 0.034 µM, 373 µM and 0.0067 µM.
For `COc1cc(C#N)cnc1C(=O)Nc1cc(Cl)c(F)c([C@@]2(CF)N=C(N)O[C@@H]3C[C@@H]32)c1` [Example 86, N-(3-((1R,5S,6R)-3-amino-5-(fluoromethyl)-2-oxa-4-azabicyclo[4.1.0]hept-3-en-5-yl)-5-chloro-4-fluorophenyl)-5-cyano-3-methoxypicolinamide], in that order: 0.0759 µM, 892 µM and 0.0094 µM.
Consider `Cc1cc(OC(F)F)cnc1C(=O)Nc1cc(Cl)c(F)c([C@@]2(CF)N=C(N)O[C@@H]3C[C@@H]32)c1` [Example 87, N-(3-((1R,5S,6R)-3-amino-5-(fluoromethyl)-2-oxa-4-azabicyclo[4.1.0]hept-3-en-5-yl)-5-chloro-4-fluorophenyl)-5-(difluoromethoxy)-3-methylpicolinamide], for which the IC50 in experiment [1] worked out at 0.0323 µM; in experiment [2], 164 µM; in experiment [3] it was 0.0135 µM.
The like results for `N#Cc1ccc(C(=O)Nc2cc(Cl)c(F)c([C@@]3(CF)N=C(N)O[C@@H]4C[C@@H]43)c2)nc1` [Example 88, N-(3-((1R,5S,6R)-3-amino-5-(fluoromethyl)-2-oxa-4-azabicyclo[4.1.0]hept-3-en-5-yl)-5-chloro-4-fluorophenyl)-5-cyanopicolinamide] were, in that order, 0.0294 µM, 302 µM and 0.0098 µM.
For the compound `COc1cnc(C(=O)Nc2cc(Cl)c(F)c([C@@]3(CF)N=C(N)O[C@@H]4C[C@@H]43)c2)c(C)n1` [Example 89, N-(3-((1R,5S,6R)-3-amino-5-(fluoromethyl)-2-oxa-4-azabicyclo[4.1.0]hept-3-en-5-yl)-5-chloro-4-fluorophenyl)-5-methoxy-3-methylpyrazine-2-carboxamide], the IC50 is 0.0731 µM in experiment [1], 574 µM in experiment [2] and 0.0245 µM in experiment [3].
`Cc1cc(C#N)cnc1C(=O)Nc1cc(Cl)c(F)c([C@@]2(CF)N=C(N)O[C@@H]3C[C@@H]32)c1` [Example 91, N-(3-((1R,5S,6R)-3-amino-5-(fluoromethyl)-2-oxa-4-azabicyclo[4.1.0]hept-3-en-5-yl)-5-chloro-4-fluorophenyl)-5-cyano-3-methylpicolinamide]: the 50% inhibitory concentration (IC50) in experiment [1] was found to be 0.0506 µM; in experiment [2] it was 260 µM; in experiment [3] it was 0.0073 µM.
